Measurements as given in article PMC11852993, “Discovery of small molecules against porcine reproductive and respiratory syndrome virus replication by targeting NendoU activity” (Journal of Virology, 2024).
Read-outs that look alike come from different tables or passages of the source.

Experiments:
VR-NSP11 [1] = target: T1, VR-NSP11 (PRRSV VR2332, UniProt Q9WJB2); assay: FRET NendoU assay (6-FAM/BHQ-1 RNA R23.[…]); assay type: biochemical
T1 construct: gene rep; mature NSP11 cut from replicase polyprotein 1ab (ORF1b part); N-terminal 6xHN tag (pET6xHN-N), expressed in E. coli BL21(DE3), TALON purified

VR-NSP11 [2] = target: T1, VR-NSP11; assay: microscale thermophoresis; assay type: binding
Description: microscale thermophoresis on VR-NSP11 | The MST analysis confirmed a direct interaction between VR-NSP11 and both compounds

T1 sequence (Q9WJB2 3585-3807): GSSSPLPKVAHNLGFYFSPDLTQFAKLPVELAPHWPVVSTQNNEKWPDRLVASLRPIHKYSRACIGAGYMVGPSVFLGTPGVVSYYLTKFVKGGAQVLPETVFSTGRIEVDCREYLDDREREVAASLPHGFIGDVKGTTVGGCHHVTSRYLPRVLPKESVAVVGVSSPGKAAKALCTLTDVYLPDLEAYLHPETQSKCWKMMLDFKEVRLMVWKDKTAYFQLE

## CCc1c(C)nc(Nc2nc(C)c3ccc(OC)cc3n2)nc1O [A8-A2]
VR-NSP11 [1]; read-out: IC50
  IC50: 24.6 µM
VR-NSP11 [2]
  Kd: 23 µM

## COc1ccc2c(C)nc(Nc3nc(C)c(C)c(=O)[nH]3)nc2c1 [Madrasin]
VR-NSP11 [1]; fluorescence at 2 h, 1 µM R23.1, HEPES pH 7.5, 50 mM KCl, 1 mM DTT, 25 °C, 1.2 µM enzyme
  IC50: these IC50 values are higher than those of C5 and Madrasin
